Source: patent publication US9199942B2, “Processes for the preparation of pesticidal compounds” (Dow AgroSciences LLC, priority 2013, dated 2015)
Structures can show the parent of a compound that is named as a salt. Where two headings read alike, the source gives them in different places.

How the values were obtained:
[1] = tested on: Green Peach Aphid (Myzus persicae) (MYZUPE); test: Bioassay on green peach aphid (GPA), foliar spray on infested cabbage seedlings; type: in vivo; settings: 72 h, read-out: MYZUPE rating (% Control of Mortality)
Experimental: Example A Bioassays on Green Peach Aphid (“GPA”) (Myzus persicae) (MYZUPE.
Several molecules disclosed herein were tested against GPA using procedures described below.
Cabbage seedling grown in 3-in pots, with 2-3 small (3-5 cm) true leaves, were used as test substrate. The seedlings were infested with […] (wingless adult and nymph stages) one day prior to chemical application. Four posts with individual seedlings were used for each treatment. Test compounds (2 mg) were dissolved in 2 mL of acetone/methanol (1:1) solvent, forming stock solutions of 1000 ppm test compound. The stock solutions were diluted 5× with 0.025% Tween 20 in water to obtain the solution at 200 ppm test compound. A hand-held aspirator-type sprayer was used for spraying a solution to both sides of the cabbage leaves until runoff. Reference plants (solvent check) were sprayed with the diluent only containing 20% by volume acetone/methanol (1:1) solvent. Treated plants were held in a holding room for three days at approximately 25° C. and ambient relative humidity (RH) prior to grading. Evaluation was conducted by counting the number of live aphids per plant under a microscope. Percent Control was measured by using Abbott's correction formula (W. S. Abbott, “A Method of Computing the Effectiveness of an Insecticide” J. Econ. Entomol 18 (1925), pp. 265-267) as follows. Corrected % Control=100*(X−Y)/X • where • X=No. of live aphids on solvent check plants and • Y=No. of live aphids on treated plants
The results are indicated in the table entitled “Table 1: GPA (MYZUPE) and sweetpotato whitefly-crawler (BEMITA) Rating Table”.

[2] = tested on: Sweetpotato Whitefly Crawler (Bemisia tabaci) (BEMITA); test: Bioassay on sweetpotato whitefly crawler, foliar spray on infested cotton plants; type: in vivo; settings: read-out: BEMITA rating (% Control of Mortality)
Source text: Example B Bioassays on Sweetpotato Whitefly Crawler (Bemisia tabaci) (BEMITA.)
Cotton plants grown in 3-inch pots, with 1 small (3-5 cm) true leaf, were used at test substrate. The plants were placed in a room with whitely adults. Adults were allowed to deposit eggs for 2-3 days. After a 2-3 day egg-laying period, plants were taken from the adult whitefly room. Adults were blown off leaves using a hand-held Devilbliss sprayer (23 psi). Plants with egg infestation (100-300 eggs per plant) were placed in a holding room for 5-6 days at 82° F. and 50% RH for egg hatch and crawler stage to develop. Four cotton plants were used for each treatment. Compounds (2 mg) were dissolved in 1 mL of acetone solvent, forming stock solutions of 2000 ppm. The stock solutions were diluted 10× with 0.025% Tween 20 in water to obtain a test solution at 200 ppm. A hand-held Devilbliss sprayer was used for spraying a solution to both sides of cotton leaf until runoff. Reference plants (solvent check) were sprayed with the diluent only. Treated plants were held in a holding room for 8-9 days at approximately 82° F. and 50% RH prior to grading. Evaluation was conducted by counting the number of live nymphs per plant under a microscope.

[3] = 200 ppm spray on cabbage leaves, live aphids counted after three days, Abbott's correction
[4] = 200 ppm spray on cotton leaves, live nymphs counted after 8-9 days, Abbott's correction

| SMILES | mortality at 200 ppm [1] [%] | mortality at 200 ppm [2] [%] | mortality at 200 ppm [1, 3] [%] | mortality at 200 ppm [2, 4] [%] |
| --- | --- | --- | --- | --- |
| Nc1c[nH]nc1Cl [Compound 1a, 3-chloro-1H-pyrazol-4-amine hydrochloride] | 0 to 80 | 0 to 80 | – | – |
| O=C(CCSCCC(F)(F)F)Nc1c[nH]nc1Cl [Compound 3.4] | – | – | 0 to 80 | 0 to 80 |
| O=C(CCCl)Nc1c[nH]nc1Cl [Compound 4a, 3-chloro-N-(-3-chloro-1H-pyrazol-4-yl) propanamide] | – | – | < 0 | 0 to 80 |
